Experimental data taken from patent publication US20190083462A1, “PREVENTION OF NSAID ENTEROPATHY WITH MICROBIOTA-DERIVED TRYPTOPHAN-METABOLITE” (THE TEXAS A&M UNIVERSITY SYSTEM, priority 2016, published 2019).

What was measured:
C57BL/6J mice = experiment: Histology and small intestinal morphometric measurements; assay type: in vivo; details: Swiss-rolled H & E stained small intestinal sections, n=5/group
Method: Eight- to 10-week-old specific-pathogen-free C57BL/6J mice were purchased and allowed to acclimate for 2 weeks. Mice were fed standardized laboratory rodent diet and sterile water ad libitum. […] Mice were then rehoused on the basis of treatment group assignment, with 5 animals/group-cage. To induce NSAID enteropathy, mice in group 1 were gavaged once daily with indomethacin (5 mg/kg; for 7 days; Sigma Aldrich, St. Louis, Mo.) dissolved in dimethylysulfoxide (DMSO) (Sigma Aldrich, St. Louis, Mo.) and further diluted in phosphate buffered saline (PBS). […] All mice were gavaged with equal volumes (200 μL) and equal concentrations of DMSO (0.001%).
The slides were scored as previously described for intestinal inflammation (Jia Q, Lupton J R, Smith R, Weeks B R, Callaway E, Davidson L A, Kim W, Fan Y Y, Yang P, Newman R A, et al. Reduced colitis-associated colon cancer in Fat-1 (n-3 fatty acid desaturase) transgenic mice. Cancer Research 2008; 68:3985-91). Briefly, mucosal injury was determined by the following parameters scored from 0 (no evidence) to 3 (marked): mucosal ulceration, mucosal erosion, and presence of squamified epithelium. Inflammatory changes were scored similarly based on the following parameters: lymphocytic infiltration, plasma cell infiltration, and neutrophilic infiltration. Finally, an overall evidence of injury score was used to document total injury graded from 0 (none) to 4 (marked). Morphological parameters were obtained from digitally scanned slides using SPOT vr 5.0 software. Three sets of measurements from 3 separate sections were recorded for each animal by an observer blinded to treatment group. Measurements consisted of villus height, crypt depth, and submucosal mural thickness.

fecal microbiota = experiment: Fecal microbiota 16S rRNA sequencing (ANOSIM, SIMPER); assay type: in vivo, mice; details: for mean % abundance: day 7 feces
[1] = tested on: fecal tryptophan metabolites; experiment: Fecal tryptophan metabolites by LC-MS; assay type: in vivo, mice
Source text: (§1) Eight- to 10-week-old specific-pathogen-free C57BL/6J mice were purchased and allowed to acclimate for 2 weeks. Mice were fed standardized laboratory rodent diet and sterile water ad libitum. Mice were randomly divided into the following 4 groups (n=5 mice/group): 1) NSAID (indomethacin); 2) indole; 3) NSAID+indole; and, 4) untreated controls. Mice were then rehoused on the basis of treatment group assignment, with 5 animals/group-cage. To induce NSAID enteropathy, mice in group 1 were gavaged once daily with indomethacin (5 mg/kg; for 7 days; Sigma Aldrich, St. Louis, Mo.) dissolved in dimethylysulfoxide (DMSO) (Sigma Aldrich, St. Louis, Mo.) and further diluted in phosphate buffered saline (PBS). Mice in group 2 received indole by gavage (20 mg/kg; once daily for 7 days; Sigma Aldrich, St. Louis, Mo.) dissolved in sterile water warmed to 55° C. Mice in group 3 received indole co-administered with indomethacin by gavage at the dosages described above. All mice were gavaged with equal volumes (200 μL) and equal concentrations of DMSO (0.001%).
Feces were collected daily by placing individual animals in sterile plastic cups that were RNase- and DNase-free until they passed feces. The mice were immediately returned to their home cages and the feces immediately flash frozen at −80° C. All animals were euthanized via CO2 asphyxiation on day 8 (i.e., after 7 days of treatment). The small intestine was harvested, opened longitudinally, rinsed with ice-cold PBS, and the distal ⅓ of the intestinal mucosa was scraped for tissue gene expression analysis. The remaining small intestine was fixed in 4% paraformaldehyde, Swiss-rolled, paraffin-embedded, and stained with hematoxylin and eosin. The spleen and mesenteric lymph nodes (MLN) were harvested, and immediately placed in ice cold RPMI-1640-c+10% fetal calf serum (FCS: Life Technologies, Carlsbad, Calif.), homogenized, and prepared as a single cell suspension for flow cytometric analysis as previously described (Wang N, Strugnell R, Wijburg O, Brodnicki T. Measuring bacterial load and immune responses in mice infected with Listeria monocytogenes. Journal of Visualized Experiments: JoVE 2011).
Metabolites from the fecal contents were extracted using a solvent-based method as previously described (Sridharan G V, Choi K, Klemashevich C, Wu C, Prabakaran D, Pan L B, Steinmeyer S, Mueller C, Yousofshahi M, Alaniz R C, et al. Prediction and quantification of bioactive microbiota metabolites in the mouse gut. Nature Communications 2014; 5:5492). Briefly, fecal pellets were homogenized using a homogenizer (Omni International) with equal volume of cold methanol and half volume of chloroform. The samples were then centrifuged at 10,000 g at 4° C. (Thermo Fisher Scientific) for 10 min. Supernatant was passed through a 70-μm sterile nylon cell strainer (Falcon) and 0.6 ml of ice cold water was added. The samples were vortex and centrifuged again at 10,000 g for 5 minutes. The upper phase and lower phase were collected and 400 μl of upper phase was dried to a pellet using a vacufuge (Eppendorf, Hauppauge, N.Y.), and then reconstituted in 50 μl of methanol/water (1:1, v/v). The samples were stored at −80° C. until analysis. Tryptophan metabolites in the samples were detected and quantified on a triple quadrupole linear ion trap mass spectrometer (3200 QTRAP, AB SCIEX, Foster City, Calif.) coupled to a binary pump HPLC (Prominence LC-20, Shimazu, Concord, Ontario, Canada).

small intestinal mucosa = experiment: RNA sequencing (RNA-Seq) of the distal small intestinal mucosa; assay type: in vivo, mice; details: indole co-administered with NSAID; degree of up-regulation vs control mice
Source text: as §1
Feces were collected daily by placing individual animals in sterile plastic cups that were RNase- and DNase-free until they passed feces. The mice were immediately returned to their home cages and the feces immediately flash frozen at −80° C. […]
RNA was extracted from the mucosal scrapings using an RNeasy mini kit (QIAGEN, Redwood City, Calif.) following the manufacturer's instructions and including on-column DNase treatment. RNA quantity was determined using a Nanodrop spectrophotometer (Fisher Thermoscientific) and the quality was assessed using the Nano6000 chip on a Bioanalyzer 2100(Agilent Technologies). […] Differentially expressed genes were determined using EdgeR based on the matrix of gene counts (Robinson M D, McCarthy D J, Smyth G K. edgeR: a Bioconductor package for differential expression analysis of digital gene expression data. Bioinformatics (Oxford, England) 2010; 26:139-40). Gene lists were analyzed through use of QIAGEN's Ingenuity® Pathway Analysis (IPA, QIAGEN, Redwood City, Calif. http://www.qiagen.com/ingenuity). […]

[2] = tested on: intestinal epithelial cells; details: cited from earlier work
[3] = unweighted Unifrac distance metric, day 7

c1ccc2[nH]ccc2c1 [Indole, indole]
microscopic pathology scores (C57BL/6J mice): not different | abundance of members of the phyla Firmicutes and Bacteroidetes (fecal microbiota; fecal 16S rRNA sequences, Day 0 vs Day 7): no significant difference | mean % abundance (fecal microbiota; phylum Unassigned, Other): 1.90E−03% | mean % abundance (fecal microbiota; phylum k_Bacteria, Other): 3.81E−03% | mean % abundance (fecal microbiota; phylum k_Bacteria, p_Acidobacteria): 0% | mean % abundance (fecal microbiota; phylum k_Bacteria, p_Actinobacteria): 0.0381% | mean % abundance (fecal microbiota; phylum k_Bacteria, p_Bacteroidetes): 24.6% | mean % abundance (fecal microbiota; phylum k_Bacteria, p_Cyanobacteria): 9.51E−03% | mean % abundance (fecal microbiota; phylum k_Bacteria, p_Firmicutes): 74.7% | mean % abundance (fecal microbiota; phylum k_Bacteria, p_Proteobacteria): 0.0285% | mean % abundance (fecal microbiota; phylum k_Bacteria, p_Tenericutes): 0.656% | mean % abundance (fecal microbiota; phylum k_Bacteria, p_Verrucomicrobia): 1.90E−03% | Pairwise ANOSIM R-value vs Control (fecal microbiota; [3]): 0.2 | Pairwise ANOSIM R-value vs NSAID (fecal microbiota; [3]): 0.2615 | Pairwise ANOSIM R-value vs NSAID + Indole (fecal microbiota; [3]): 0.1938 | Magnitude of change in fecal concentration between Days 0 and 7 ([1]; Indole, group effect ↑): 5.3 | fecal indole concentrations relative to controls ([1]; feces): significantly more indole | transcription of pro-inflammatory cytokines (IL-1α, IL-1β, TNF, IL-6) and chemokines (CXCL1, CXCL3, CXCL2, CXCL5, CCL2, CCL7) (small intestinal mucosa): not significantly different than control mice | NF-κB signaling [2]: inhibit | anti-inflammatory effects and expression of genes associated with tight cell junctions ([2]; in vitro, earlier work of the inventors): has anti-inflammatory effects on intestinal epithelial cells and upregulates expression of genes associated with tight cell junctions
